Test results published in ChEMBL document CHEMBL4673392, “Discovery of a Novel Series of Potent and Selective Alkynylthiazole-Derived PI3Kγ Inhibitors” (ACS Med Chem Lett, 2021).

Assays:
[1] = biological target: T1, Phosphatidylinositol 4,5-bisphosphate 3-kinase catalytic subunit gamma isoform (Homo sapiens, UniProt P48736); test: Inhibition of PI3Kgamma (unknown origin) using PIP2 as substrate measured after 15 mins in presence of [33P]-ATP by liquid scintillation counting method
[2] = biological target: T1, Phosphatidylinositol 4,5-bisphosphate 3-kinase catalytic subunit gamma isoform; test: Inhibition of PI3Kgamma in human THP-1 cells assessed as reduction in Akt phosphorylation at Ser473 residue; format: cell-based
[3] = biological target: Cyclin-dependent kinase 2 (Homo sapiens, UniProt P24941); test: Inhibition of CDK2 (unknown origin)
[4] = biological target: T2, Receptor-type tyrosine-protein kinase FLT3 (Homo sapiens, UniProt P36888); test: Inhibition of FLT3 (unknown origin)
T2 sequence (P36888 whole entry): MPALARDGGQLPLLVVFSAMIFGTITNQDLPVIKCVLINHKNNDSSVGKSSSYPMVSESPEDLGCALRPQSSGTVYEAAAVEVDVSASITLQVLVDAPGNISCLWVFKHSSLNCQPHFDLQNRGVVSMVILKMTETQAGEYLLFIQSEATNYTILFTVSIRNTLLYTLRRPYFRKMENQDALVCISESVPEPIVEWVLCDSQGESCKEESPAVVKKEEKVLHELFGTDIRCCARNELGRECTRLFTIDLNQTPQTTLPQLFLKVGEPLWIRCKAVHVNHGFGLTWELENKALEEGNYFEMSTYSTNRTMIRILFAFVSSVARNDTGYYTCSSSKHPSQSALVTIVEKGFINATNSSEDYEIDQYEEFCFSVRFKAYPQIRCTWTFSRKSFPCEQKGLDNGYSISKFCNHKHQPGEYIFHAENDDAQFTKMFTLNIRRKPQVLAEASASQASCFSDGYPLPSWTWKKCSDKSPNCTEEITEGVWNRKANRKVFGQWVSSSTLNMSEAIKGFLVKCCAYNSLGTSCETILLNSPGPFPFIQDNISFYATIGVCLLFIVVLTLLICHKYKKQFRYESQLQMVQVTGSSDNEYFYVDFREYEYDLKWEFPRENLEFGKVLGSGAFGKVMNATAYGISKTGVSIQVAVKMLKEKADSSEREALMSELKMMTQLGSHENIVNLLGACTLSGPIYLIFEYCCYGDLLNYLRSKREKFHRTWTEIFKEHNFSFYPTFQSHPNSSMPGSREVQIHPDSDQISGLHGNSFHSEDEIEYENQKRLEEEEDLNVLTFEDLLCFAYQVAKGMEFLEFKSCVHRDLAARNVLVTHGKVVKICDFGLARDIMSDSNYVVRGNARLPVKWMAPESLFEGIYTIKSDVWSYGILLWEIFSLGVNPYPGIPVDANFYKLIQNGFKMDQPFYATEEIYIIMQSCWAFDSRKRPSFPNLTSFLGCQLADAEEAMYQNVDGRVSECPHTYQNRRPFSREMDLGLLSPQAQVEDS

[5] = biological target: Glycogen synthase kinase-3 beta (Homo sapiens, UniProt P49841); test: Inhibition of GSK3B (unknown origin)
Glycogen synthase kinase-3 beta, sequence (P49841 whole entry): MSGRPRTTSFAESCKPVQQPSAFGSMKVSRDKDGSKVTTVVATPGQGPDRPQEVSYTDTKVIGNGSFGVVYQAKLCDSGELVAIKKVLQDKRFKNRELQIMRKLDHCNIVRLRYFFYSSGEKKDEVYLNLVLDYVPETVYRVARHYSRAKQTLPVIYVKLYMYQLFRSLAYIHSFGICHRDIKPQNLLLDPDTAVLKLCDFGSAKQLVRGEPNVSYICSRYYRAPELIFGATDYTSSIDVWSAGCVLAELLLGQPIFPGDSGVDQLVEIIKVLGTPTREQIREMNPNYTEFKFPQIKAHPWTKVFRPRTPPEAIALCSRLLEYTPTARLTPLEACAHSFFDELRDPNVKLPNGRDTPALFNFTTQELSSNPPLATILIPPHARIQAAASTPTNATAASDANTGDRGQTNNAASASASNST

[6] = biological target: T3, Interleukin-1 receptor-associated kinase 4 (Homo sapiens, UniProt Q9NWZ3); test: Inhibition of IRAK4 (unknown origin)
T3 sequence (Q9NWZ3 whole entry): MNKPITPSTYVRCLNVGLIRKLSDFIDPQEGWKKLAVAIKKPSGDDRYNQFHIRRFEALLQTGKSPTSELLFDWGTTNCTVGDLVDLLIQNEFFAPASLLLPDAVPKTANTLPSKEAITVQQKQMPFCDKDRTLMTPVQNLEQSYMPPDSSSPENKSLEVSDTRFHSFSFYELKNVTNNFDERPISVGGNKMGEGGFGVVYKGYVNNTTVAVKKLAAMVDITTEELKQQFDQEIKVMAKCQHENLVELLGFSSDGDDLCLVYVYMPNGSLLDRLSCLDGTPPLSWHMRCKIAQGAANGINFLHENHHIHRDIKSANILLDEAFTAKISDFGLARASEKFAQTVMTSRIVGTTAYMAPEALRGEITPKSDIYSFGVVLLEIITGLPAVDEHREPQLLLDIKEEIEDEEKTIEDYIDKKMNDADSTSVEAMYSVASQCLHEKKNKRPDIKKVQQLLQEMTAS

[7] = biological target: Tyrosine-protein kinase JAK2 (Homo sapiens, UniProt O60674); test: Inhibition of JAK2 (unknown origin)
Tyrosine-protein kinase JAK2, sequence (O60674 whole entry): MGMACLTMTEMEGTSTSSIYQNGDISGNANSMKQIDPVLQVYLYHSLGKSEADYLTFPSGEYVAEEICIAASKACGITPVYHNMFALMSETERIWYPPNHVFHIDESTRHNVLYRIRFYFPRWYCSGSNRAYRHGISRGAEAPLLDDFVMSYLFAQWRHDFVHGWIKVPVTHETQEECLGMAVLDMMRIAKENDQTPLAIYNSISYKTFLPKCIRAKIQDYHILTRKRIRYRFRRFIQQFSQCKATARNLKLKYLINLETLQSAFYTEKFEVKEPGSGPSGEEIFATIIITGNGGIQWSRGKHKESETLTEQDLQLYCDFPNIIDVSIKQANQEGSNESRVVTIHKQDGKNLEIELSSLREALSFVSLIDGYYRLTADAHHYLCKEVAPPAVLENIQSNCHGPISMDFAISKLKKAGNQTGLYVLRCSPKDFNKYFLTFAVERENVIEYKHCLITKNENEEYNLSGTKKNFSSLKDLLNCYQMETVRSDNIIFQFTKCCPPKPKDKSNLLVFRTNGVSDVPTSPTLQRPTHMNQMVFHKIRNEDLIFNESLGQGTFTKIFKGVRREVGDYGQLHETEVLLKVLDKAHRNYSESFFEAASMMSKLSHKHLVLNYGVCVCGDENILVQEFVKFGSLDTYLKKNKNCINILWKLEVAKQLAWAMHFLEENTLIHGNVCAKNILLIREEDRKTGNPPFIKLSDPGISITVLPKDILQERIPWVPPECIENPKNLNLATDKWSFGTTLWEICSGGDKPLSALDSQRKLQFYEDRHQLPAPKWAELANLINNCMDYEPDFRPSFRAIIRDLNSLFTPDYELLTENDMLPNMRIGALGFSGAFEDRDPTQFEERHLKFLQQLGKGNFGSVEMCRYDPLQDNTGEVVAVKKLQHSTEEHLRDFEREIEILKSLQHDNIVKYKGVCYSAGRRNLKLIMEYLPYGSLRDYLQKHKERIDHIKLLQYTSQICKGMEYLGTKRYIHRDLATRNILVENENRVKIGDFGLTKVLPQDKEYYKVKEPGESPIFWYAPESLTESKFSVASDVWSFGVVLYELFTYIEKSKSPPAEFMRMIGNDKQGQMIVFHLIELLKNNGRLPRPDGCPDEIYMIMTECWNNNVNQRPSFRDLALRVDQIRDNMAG

[8] = biological target: Mitogen-activated protein kinase 10 (Homo sapiens, UniProt P53779); test: Inhibition of JNK3 (unknown origin)
Mitogen-activated protein kinase 10, sequence (P53779 whole entry): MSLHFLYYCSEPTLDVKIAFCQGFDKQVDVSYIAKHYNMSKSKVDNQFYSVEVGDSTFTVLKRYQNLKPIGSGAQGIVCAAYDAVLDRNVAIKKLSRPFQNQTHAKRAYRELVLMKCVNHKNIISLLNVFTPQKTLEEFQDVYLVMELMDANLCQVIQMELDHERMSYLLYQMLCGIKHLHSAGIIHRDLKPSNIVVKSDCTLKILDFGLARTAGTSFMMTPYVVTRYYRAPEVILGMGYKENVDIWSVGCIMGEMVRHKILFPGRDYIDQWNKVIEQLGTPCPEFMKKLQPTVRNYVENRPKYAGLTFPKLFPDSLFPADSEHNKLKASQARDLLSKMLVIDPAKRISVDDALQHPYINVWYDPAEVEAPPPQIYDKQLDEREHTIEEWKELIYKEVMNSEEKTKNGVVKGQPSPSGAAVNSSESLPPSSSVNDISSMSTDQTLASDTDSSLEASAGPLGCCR

[9] = biological target: Vascular endothelial growth factor receptor 2 (Homo sapiens, UniProt P35968); test: Inhibition of KDR (unknown origin)
Vascular endothelial growth factor receptor 2, sequence (P35968 whole entry): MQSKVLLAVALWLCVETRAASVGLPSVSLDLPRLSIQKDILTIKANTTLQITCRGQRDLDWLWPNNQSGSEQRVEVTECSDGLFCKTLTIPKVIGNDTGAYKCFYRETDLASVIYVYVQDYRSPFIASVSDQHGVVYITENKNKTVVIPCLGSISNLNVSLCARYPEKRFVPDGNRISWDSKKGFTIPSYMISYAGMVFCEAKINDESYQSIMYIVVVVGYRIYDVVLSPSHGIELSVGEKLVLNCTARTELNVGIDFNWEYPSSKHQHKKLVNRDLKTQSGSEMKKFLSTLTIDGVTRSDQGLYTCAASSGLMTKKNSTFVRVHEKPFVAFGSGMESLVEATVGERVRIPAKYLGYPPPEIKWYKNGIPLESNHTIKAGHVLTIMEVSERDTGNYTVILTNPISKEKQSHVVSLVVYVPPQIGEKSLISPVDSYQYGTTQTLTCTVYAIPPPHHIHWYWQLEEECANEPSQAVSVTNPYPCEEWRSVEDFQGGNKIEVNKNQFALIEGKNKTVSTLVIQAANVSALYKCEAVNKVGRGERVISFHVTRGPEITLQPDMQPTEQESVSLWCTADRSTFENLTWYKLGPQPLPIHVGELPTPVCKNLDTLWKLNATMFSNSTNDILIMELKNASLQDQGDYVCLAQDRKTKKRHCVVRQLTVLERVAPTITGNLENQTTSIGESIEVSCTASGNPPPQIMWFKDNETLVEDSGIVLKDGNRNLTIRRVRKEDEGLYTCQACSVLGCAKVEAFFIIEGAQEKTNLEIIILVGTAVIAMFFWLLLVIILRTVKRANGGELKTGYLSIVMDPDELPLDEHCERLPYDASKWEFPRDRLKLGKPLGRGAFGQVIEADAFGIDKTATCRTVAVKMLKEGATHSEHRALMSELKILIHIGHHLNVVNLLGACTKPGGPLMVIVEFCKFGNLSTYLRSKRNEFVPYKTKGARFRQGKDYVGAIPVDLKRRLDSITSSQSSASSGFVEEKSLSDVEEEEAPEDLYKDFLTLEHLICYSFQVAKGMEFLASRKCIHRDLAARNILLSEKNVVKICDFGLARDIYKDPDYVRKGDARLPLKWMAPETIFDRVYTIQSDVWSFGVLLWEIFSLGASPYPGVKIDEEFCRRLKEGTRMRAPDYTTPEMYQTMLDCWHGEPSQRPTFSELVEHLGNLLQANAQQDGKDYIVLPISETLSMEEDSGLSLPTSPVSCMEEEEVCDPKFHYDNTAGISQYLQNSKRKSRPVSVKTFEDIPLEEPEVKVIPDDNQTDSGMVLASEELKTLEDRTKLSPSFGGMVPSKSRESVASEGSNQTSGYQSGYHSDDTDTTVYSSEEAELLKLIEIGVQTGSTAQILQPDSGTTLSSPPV

[10] = biological target: Serine/threonine-protein kinase PLK1 (Homo sapiens, UniProt P53350); test: Inhibition of PLK1 (unknown origin)
[11] = biological target: Rho-associated protein kinase 1 (Homo sapiens, UniProt Q13464); test: Inhibition of ROCK1 (unknown origin)
Rho-associated protein kinase 1, sequence (Q13464 whole entry): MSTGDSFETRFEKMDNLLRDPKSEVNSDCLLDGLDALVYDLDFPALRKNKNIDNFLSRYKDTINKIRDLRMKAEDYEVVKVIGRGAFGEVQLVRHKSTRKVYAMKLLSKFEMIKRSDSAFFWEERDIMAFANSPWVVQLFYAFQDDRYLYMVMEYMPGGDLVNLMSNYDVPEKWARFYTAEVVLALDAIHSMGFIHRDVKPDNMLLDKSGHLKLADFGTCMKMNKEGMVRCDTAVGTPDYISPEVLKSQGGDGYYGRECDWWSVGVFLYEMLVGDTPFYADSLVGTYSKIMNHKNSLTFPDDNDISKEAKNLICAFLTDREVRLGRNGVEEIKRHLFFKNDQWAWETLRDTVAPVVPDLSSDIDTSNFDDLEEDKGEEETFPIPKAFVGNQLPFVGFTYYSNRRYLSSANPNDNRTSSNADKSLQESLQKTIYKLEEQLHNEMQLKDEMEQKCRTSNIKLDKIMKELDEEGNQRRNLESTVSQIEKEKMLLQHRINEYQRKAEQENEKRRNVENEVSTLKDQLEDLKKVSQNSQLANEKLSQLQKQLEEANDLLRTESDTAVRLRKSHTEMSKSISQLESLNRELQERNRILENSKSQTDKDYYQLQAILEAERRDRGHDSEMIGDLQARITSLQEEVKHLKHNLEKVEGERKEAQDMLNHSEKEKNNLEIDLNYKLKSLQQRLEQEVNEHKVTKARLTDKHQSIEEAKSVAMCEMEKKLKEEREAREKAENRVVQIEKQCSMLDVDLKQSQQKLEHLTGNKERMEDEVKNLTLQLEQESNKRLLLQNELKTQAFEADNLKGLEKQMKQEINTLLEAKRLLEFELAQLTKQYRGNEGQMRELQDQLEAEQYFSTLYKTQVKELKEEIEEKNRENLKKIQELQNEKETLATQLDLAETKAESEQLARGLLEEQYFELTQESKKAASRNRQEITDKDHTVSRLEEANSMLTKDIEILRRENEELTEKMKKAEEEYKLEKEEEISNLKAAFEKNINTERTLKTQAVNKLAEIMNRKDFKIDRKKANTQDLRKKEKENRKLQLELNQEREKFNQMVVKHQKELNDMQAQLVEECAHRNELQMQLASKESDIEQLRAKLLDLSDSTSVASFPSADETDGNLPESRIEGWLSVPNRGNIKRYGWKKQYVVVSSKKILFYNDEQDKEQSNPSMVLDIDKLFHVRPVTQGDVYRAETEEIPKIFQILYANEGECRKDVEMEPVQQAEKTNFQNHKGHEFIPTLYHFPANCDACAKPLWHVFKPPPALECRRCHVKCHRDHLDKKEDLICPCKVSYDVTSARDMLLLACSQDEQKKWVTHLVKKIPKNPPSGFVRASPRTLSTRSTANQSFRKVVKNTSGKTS

[12] = biological target: Proto-oncogene tyrosine-protein kinase Src (Homo sapiens, UniProt P12931); test: Inhibition of SRC (unknown origin)
[13] = biological target: Tyrosine-protein kinase SYK (Homo sapiens, UniProt P43405); test: Inhibition of SYK (unknown origin)
[14] = test system: Mus musculus; test: Antiinflammatory activity against Balb/c mouse air pouch model assessed as decrease in IL-8 stimulated neutrophil recruitment in air pouch at 50 mg/kg, po treated for 1 hr prior to IL-8 administration and measured after 4 hrs by FACS analysis; format: functional; conditions: time 5 hrs
[15] = biological target: Phosphatidylinositol 4,5-bisphosphate 3-kinase catalytic subunit alpha isoform (Homo sapiens, UniProt P42336); test: Inhibition of PI3Kalpha (unknown origin) using PIP2 as substrate measured after 15 mins in presence of [33P]-ATP by liquid scintillation counting method

| Ki [1] | IC50 [2] | Ki [3] | Ki [4] | Ki [5] | Ki [6] | Ki [7] | Ki [8] | Ki [9] | Ki [10] | Ki [11] | Ki [12] | Ki [13] | Ki [15] | Compound | inhibition in vivo at 50 mg/kg [14] |
| --- | --- | --- | --- | --- | --- | --- | --- | --- | --- | --- | --- | --- | --- | --- | --- |
| 0.043 µM | 0.76 µM |  |  |  |  |  |  |  |  |  |  |  |  | COCCNC(=O)Nc1nc(C)c(C#Cc2ccncc2)s1 |  |
| 0.006 µM | 0.23 µM |  |  |  |  |  |  |  |  |  |  |  |  | CCCOCCNC(=O)Nc1nc(C)c(C#Cc2ccncc2)s1 |  |
| 0.045 µM | > 10 µM |  |  |  |  |  |  |  |  |  |  |  |  | Cc1nc(NC(=O)NCCOCC2CC2)sc1C#Cc1cnc2ncccc2c1 |  |
| 0.042 µM | 0.56 µM |  |  |  |  |  |  |  |  |  |  |  |  | CCOCCNC(=O)Nc1nc(C)c(C#Cc2ccncc2)s1 |  |
| 0.003 µM | 0.18 µM | > 4 µM | > 4 µM | > 4 µM | > 4 µM | > 4 µM | > 4 µM | > 4 µM | > 4 µM | > 4 µM | > 4 µM | > 4 µM |  | COc1cc(C#Cc2sc(NC(=O)NCCOCC3CC3)nc2C)cnc1OC | 85% |
| 0.006 µM | 0.29 µM |  |  |  |  |  |  |  |  |  |  |  |  | Cc1nc(NC(=O)NCCOCC2CC2)sc1C#Cc1ccnc2ccccc12 |  |
|  |  | > 4 µM | > 4 µM | > 4 µM | > 4 µM | > 4 µM | > 4 µM | > 4 µM | > 4 µM | > 4 µM | > 4 µM | > 4 µM |  | Cc1nc(NC(=O)NCCOCC2CC2)sc1C#Cc1ccc2cncn2c1 |  |
| 0.004 µM | 0.13 µM | > 4 µM | > 4 µM | > 4 µM | > 4 µM | > 4 µM | > 4 µM | > 4 µM | > 4 µM | > 4 µM | > 4 µM | > 4 µM | 0.252 µM | Cc1nc(NC(=O)NCCc2cn(CC(F)F)cn2)sc1C#Cc1cccnc1 |  |
| 0.006 µM | 0.49 µM |  |  |  |  |  |  |  |  |  |  |  |  | Cc1nc(NC(=O)NCCOCC2CC2)sc1C#Cc1ccnc(F)c1 |  |
